This is an account of results in patent publication US4797417A, “Furanone derivatives, process for preparation thereof and use thereof” (Fujisawa Pharmaceutical Co., Ltd., priority 1982, dated 1989).

By IC50 is commonly meant the midpoint of a concentration-inhibition curve.

The structures appear in SMILES notation. Where two headings read alike, the source gives them in different places.

The target of the experiment is T1, aldose reductase (Oryctolagus cuniculus, UniProt P15122).
T1 construct: The lenses were homogenized with 3 volumes of distilled water at 4° C; from tissue; host or cells: rabbit lens (homogenate, 10,000 G supernatant, dialysed)
Put plainly: Aldose reductase-inhibiting activity, enzymatic assay (decrease in NADPH, D,L-glyceraldehyde substrate, rabbit lens enzyme solution). It is filed as biochemical. To be noted: concentration at which the aldose reductase activity is inhibited by 50%, pH 6.2, 35° C., 2 minutes. On the procedure: (1) Enzymatic assay method:
The above reactants were mixed and reacted at 35° C. for 2 minutes and the decrease in amount of NADPH was measured with an Automatic Reaction Rate Analyzer Model LKB-8600 of LKB Producter A. B. The enzyme activity at achange in absorbance of 0.001 per minute was taken as unity.
(2) Method for preparing an enzyme solution
Rabbit eyes were enucleated and the lenses collected. The lenses were homogenized with 3 volumes of distilled water at 4° C. (All the subsequent procedures were also performed at 4° C.) and centrifuged at 10,000 G for 60 minutes. The supernatant was dialyzed against 2 liters of 0.05 M of saline solution and the interal fluid was used as the enzyme solution.

For the compound `COC1=C(c2cccc(C(F)(F)F)c2)C(CCC(=O)O)OC1=O` (stereo not drawn) [Example 20, 3-[4-Methoxy-5-oxo-3-(3-trifluoromethylphenyl)2,5-dihydro-2-furyl]propionicacid], for the setting “IC50 (M)”, the IC50 is 4.8e-07 M.

`CCOC(=O)CCC1OC(=O)C(OC)=C1c1ccccc1` (stereo not drawn) [Example 4, ethyl 3-(4-methoxy-5-oxo-3-phenyl-2,5-dihydro-2-furyl)propionate]: the IC50 (read-out: IC50) was 2.2e-07 M.

Take `COC1=C(c2ccc(Cl)cc2)C(CCC(=O)O)OC1=O` (stereo not drawn) [Example 19, 3-[3-(4-Chlorophenyl)-4-methoxy-5-oxo-2,5-dihydro-2-furyl]propionic acid]: the IC50 (read-out: IC50) worked out at 1.5e-07 M.

In the case of `O=C(O)CCC1OC(=O)C(O)=C1c1ccccc1` (single isomer, unassigned) [Example 30-2, (d)-3-(4-hydroxy5-oxo-3-phenyl-2,5-dihydro-2-furyl)propionic acid], for the setting “read-out: IC50”, the IC50 is 2.5e-06 M.

Consider `O=C(O)CCC1OC(=O)C=C1c1ccccc1` (stereo not drawn) [Example 29-8, 3-(2,5-dihydro5-oxo-3-phenyl-2-furyl)propionic acid], for which the IC50 (read-out: IC50) was 5.4e-07 M.

As to `O=C(O)CCC1OC(=O)C(O)=C1c1ccccc1` (single isomer, unassigned) [Example 30-3, (l)-3-(4-hydroxy-5-oxo-3-phenyl-2,5-dihydro-2-furyl)propionic acid], the IC50 (read-out: IC50) is 5.4e-07 M.

For `CCCCCOC1=C(c2ccccc2)C(CCC(=O)O)OC1=O` (stereo not drawn) [Example 17, 3-(5-oxo-4-pentyloxy-3-phenyl2,5-dihydro-2-furyl)propionicacid], under “read-out: IC50”, the IC50 was found to be 5e-08 M.

Regarding `COC1=C(c2ccccc2)C(CCC(=O)O)OC1=O` (stereo not drawn) [Example 18, 3-(4-Methoxy-5-oxo-3-phenyl-2,5-dihydro-2-furyl)propionic acid], the IC50 (read-out: IC50) turned out to be 2.2e-07 M.

On to `CCOC1=C(c2ccccc2)C(CCC(=O)O)OC1=O` (stereo not drawn) [Example 22, 3-(4-ethoxy-5-oxo-3-phenyl2,5-dihydro-2-furyl)propionic acid], for which the IC50 (read-out: IC50) amounted to 2e-07 M.
